Test results taken from US9707231B2, “Compositions and methods for reduction of amyloid-beta load” (Modgene, LLC, priority 2011, dated 2017).
Values joined by “and” are separate entries in the source; they are usually repeats but may differ in a detail not shown here. Equal values may be shown once. Where a name gives a salt, the structure may show the parent alone. Read-outs that look alike come from different tables or passages of the source.

What was measured:
[1] = tested on: Aβ; test: Aβ in media of SYSY-APP cells, Covance ELISA; format: cell-based
Method: • 1. Thaw SYSY-APP cells, add to warmed high glucose DMEM with 10% serum, pen-strep in t-75 flask. In 2 days, split culture into 4 flasks. Collect cells from 3 and freeze in liquid N2. Use remaining culture for experiment. • 2. Seed 24-well plate with cells in same media. Grow to confluence. • 3. […] After 16 hr incubation, isolate media, add 10 ul protease inhibitor and spin out cells and debris (3000×g); • 4.

[2] = cited from earlier work
[3] = biological target: T1, Abl kinase (Homo sapiens, UniProt P00519); test: Abl kinase activity, 32P-ATP / Abltide peptide, scintillation counting; format: biochemical; conditions: for Abl kinase activity, CPM (single assay): duplicates 1 and 2
T1 construct: purchased Millipore, Temecula, Calif
T1 sequence (P00519 whole entry): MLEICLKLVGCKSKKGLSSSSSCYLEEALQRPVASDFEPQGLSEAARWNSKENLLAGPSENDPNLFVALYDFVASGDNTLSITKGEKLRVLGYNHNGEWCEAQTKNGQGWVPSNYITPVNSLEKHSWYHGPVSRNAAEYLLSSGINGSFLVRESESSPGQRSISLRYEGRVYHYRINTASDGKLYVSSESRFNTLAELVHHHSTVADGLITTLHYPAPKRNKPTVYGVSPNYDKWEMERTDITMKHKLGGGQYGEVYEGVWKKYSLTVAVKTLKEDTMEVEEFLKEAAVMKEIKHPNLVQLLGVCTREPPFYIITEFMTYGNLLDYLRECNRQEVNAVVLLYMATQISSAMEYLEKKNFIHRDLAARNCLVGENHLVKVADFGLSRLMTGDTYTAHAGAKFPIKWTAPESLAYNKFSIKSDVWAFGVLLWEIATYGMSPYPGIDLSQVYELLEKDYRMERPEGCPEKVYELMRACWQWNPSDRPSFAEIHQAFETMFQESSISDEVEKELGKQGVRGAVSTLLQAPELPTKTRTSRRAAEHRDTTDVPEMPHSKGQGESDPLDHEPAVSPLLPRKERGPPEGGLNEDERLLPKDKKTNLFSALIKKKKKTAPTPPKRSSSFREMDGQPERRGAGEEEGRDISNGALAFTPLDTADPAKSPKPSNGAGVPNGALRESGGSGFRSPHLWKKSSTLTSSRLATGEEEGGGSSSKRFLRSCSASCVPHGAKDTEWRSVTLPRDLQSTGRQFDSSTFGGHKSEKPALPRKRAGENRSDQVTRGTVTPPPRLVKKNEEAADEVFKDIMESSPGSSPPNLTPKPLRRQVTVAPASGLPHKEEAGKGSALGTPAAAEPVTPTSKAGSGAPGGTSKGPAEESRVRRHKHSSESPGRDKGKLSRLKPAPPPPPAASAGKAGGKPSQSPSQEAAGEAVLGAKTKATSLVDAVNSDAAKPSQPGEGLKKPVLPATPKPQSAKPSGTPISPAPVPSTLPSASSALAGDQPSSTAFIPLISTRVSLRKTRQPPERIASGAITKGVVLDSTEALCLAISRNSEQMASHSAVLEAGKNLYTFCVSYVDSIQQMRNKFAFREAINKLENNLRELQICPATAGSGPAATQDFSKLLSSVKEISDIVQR
Method: The following were combined in order:
10 μL 2.5× kinase assay buffer
2.5 μL Abl kinase (Millipore, Temecula, Calif.)
1 μL DMSO vehicle or inhibitor in DMSO on ice
2.5 μL Abltide synthetic peptide substrate, biotin-tagged (Millipore, Temecula, Calif.) • Incubate at 30° C. for 10 min.; • Stop by the addition of 12.5 μL 7.5M guanidine HCL to each reaction, vortex. • Spot 12.5 μL on SAM2 biotin capture membrane (Promega Corp., Madison, Wis.) • Wash the membrane (4×2M NaCl; 4×2M NaCl, 1% H3PO4, 2×H2O, at room temp.) • Kinase activity was determined by scintillation counting. • The Scintillation count: final drug concentration shown • Each assay was performed in duplicate.

[4] = cited from earlier work; remark: listed apart in the source
[5] = cited from earlier work; remark: listed apart in the source
[6] = tested on: Aβ
Method: Wild-type C57B1/6 and DBA/2J male mice (age 8-12 weeks) were administered drug or vehicle twice daily for 7 days by intraperitoneal injection.
Animals were sacrificed 12 hr after the last injection. Individual mice were anesthetized with isoflurane and blood samples (100-300 ul) taken by cardiac puncture with heparinized syringes. Samples were placed on ice for 30 minutes in the presence of EDTA and then centrifuged for 20 minutes at 16,000×g at 4° C. The plasma fraction was removed and stored at −80° C. Brains were removed and frozen rapidly on dry ice and stored at −80° C.
Detection of mouse Aβ1-40 in blood and brain samples was performed by using a commercially available immunoassay kit (Biosource mouse Aβ1-40, Catalog No. KMB3481, Invitrogen, Carlsbad, Calif.) or by Western blot. Mouse brain samples were prepared by homogenizing brain tissue in a polytron in the presence of 5M guanidine HCl and 50 mM Tris HCl, pH 8.0 as described in the assay protocol.
Blood samples were diluted 1:5 in standard diluent buffer. Samples were assayed in duplicate and OD450 measured on a Tecan infinite 2000 plate reader.
For Western blots, samples were subjected to P AGE analysis, transferred to PVDF membranes and the Aβ hexamers were visualized using a monoclonal antibody 4G8 directed against mouse Aβ (1:1,000; Covance) using the manufacturer's recommended protocol. Blots were scanned by densitometry, and then reprobed with an antibody to histone H3 (1:50,000; Abcam) as a loading and transfer control. Data are depicted as normalized optical density.

[7] = 20 mg/kg IP twice daily 7 days, young and old B mice

Cc1ccc(NC(=O)c2ccc(CN3CCNCC3)cc2)cc1Nc1nccc(-c2cccnc2)n1 [N-desmethyl imatinib]
reduction of Aβ compared with imatinib (in words) ([1]; 3-100 uM, 16 hr, 100 μL aliquot, FIG. 6): more effective reduction of Aβ than does imatinib | plasma AUC of the metabolite as share of the AUC for imatinib ([2]; humans): about 15% | elimination half-life ([2]; oral administration in healthy volunteers): ~40 h | Abl kinase activity, CPM (single assay) ([3]; 10 μM final drug concentration, DMSO vehicle 2837/2956): 540 CPM and 649 CPM | Abl kinase activity, AVERAGE of the two assays ([3]; 10 μM, DMSO vehicle average 2897): 595 CPM | Abl kinase activity, AVERAGE of the two assays ([3]; 30 μM): 149 CPM | Abl kinase activity, CPM (single assay) ([3]; 30 μM final drug concentration): 149 CPM | Abl kinase activity, AVERAGE of the two assays ([3]; 100 μM): 107 CPM | Abl kinase inhibition (in words) ([3]; concentrations 10 to 100 μM, FIG. 8): inhibits Abl kinase less than does imatinib

Cc1cc(NC(=O)c2ccc(CN3CCN(C)CC3)cc2)ccc1Nc1nccc(-c2cccnc2)n1 [Imatinib para-diaminomethylbenzene 3 HCl]
effect on Aβ concentration (in words) ([1]; 3-100 μM, 150 μL media supernatant, FIG. 7): stronger inhibition of Aβ than does imatinib

COc1ccc(-c2nc3ncccc3[nH]2)c(OC)c1.Cl [ARL-57]
CNS side effects (in words) ([4]; in vivo): spectacular bright color vision | log P ([5]; pH 8): 2.59

COc1cc([S+](C)[O-])ccc1-c1nc2ncccc2[nH]1 (stereo not drawn) [ARL115, sulmazole]
CNS side effects (in words) ([4]; humans): lack the CNS side effects | log P, calcd. ([5]; calculated value): 1.82

Cc1ccc(NC(=O)c2ccc(CN3CCN(C)CC3)cc2)cc1Nc1nccc(-c2cccnc2)n1 [STI-571]
reduction of brain levels of Aβ [6, 7]: approximately 50% | reduction of plasma levels of Aβ [6, 7]: approximately 50% | reduction of circulating (plasma) Aβ ([6]; highest dose (100 mg/kg) IP twice daily 7 days, young D2 mice): approximately 75%

Cc1ccc(NC(=O)c2ccc(CN3CCN(C)CC3)cc2)cc1Nc1nccc(-c2cccnc2)n1 [imatinib, reference compound]
Cmax (time) ([2]; oral administration in pediatric patients): 2 to 4 h
